The values that follow come from patent US8293773B2, “1, 2, 3-triazole derivatives as new cannabinoid-1 receptor antagonists” (National Tsing Hua University, priority 2008, dated 2012).

T1 sequence (P21554 whole entry): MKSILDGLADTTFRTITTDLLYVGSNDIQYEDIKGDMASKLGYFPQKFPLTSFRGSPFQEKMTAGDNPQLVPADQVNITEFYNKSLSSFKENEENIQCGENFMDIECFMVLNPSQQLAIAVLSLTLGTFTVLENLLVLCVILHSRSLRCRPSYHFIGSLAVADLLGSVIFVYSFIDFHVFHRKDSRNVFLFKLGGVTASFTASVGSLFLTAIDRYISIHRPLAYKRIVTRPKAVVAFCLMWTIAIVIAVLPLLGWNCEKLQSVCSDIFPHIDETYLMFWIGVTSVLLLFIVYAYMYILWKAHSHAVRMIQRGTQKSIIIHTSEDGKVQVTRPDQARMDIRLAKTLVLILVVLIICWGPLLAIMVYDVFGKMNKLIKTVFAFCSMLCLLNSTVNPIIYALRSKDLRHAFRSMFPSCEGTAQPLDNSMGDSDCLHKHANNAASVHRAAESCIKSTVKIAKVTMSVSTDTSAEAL

This test has as its target T1, human CB1 receptor (Homo sapiens, UniProt P21554).
T1 construct: expressed in transfected cells; membrane-enriched fractions
Put plainly: competitive radioligand binding assay, displacement of [3H]CP55,940, CB1. Conditions: Table 1; percent inhibition at 10 μM. Here is the method:
In addition, the affinity of test compounds of this invention toward CB1 and CB2 receptors was determined by competitive radioligand binding assays in vitro. This method differentiates the binding strength between compounds by their abilities in displacing a receptor-specific radioactive ligand. […] The readings of the radioactivity retained allow further analysis of receptor binding, and assist in predictions of the pharmacological activities of the test compounds.
In the assays, CB1 receptors are from human CB1 stably expressed cell lines, and CB2 receptors are from human CB2 stably expressed cell lines. For purification of membrane-enriched fractions, cells were scraped off from the culture dishes in ice-cold buffer A (50 mM Tris, 5 mM MgCl2, 2.5 mM EDTA, pH 7.4, 10% sucrose) with 1 mM PMSF. After sonication, the membrane-enriched fractions were centrifuged for 15 minutes at 2,000×g at 4° C. The supernatant was centrifuged again for 30 minutes at 43,000×g at 4° C. The final pellet was re-suspended in buffer A and stored at −80° C. The protein concentration of the purified membrane was determined by the Bradford method as described by the manual provided by Bio-Rad Laboratories, Inc., Hercules, Calif.
During the receptor binding experiments, 0.2˜8 μg of membrane fractions were incubated with 0.75 nM [^3H]CP55,940 and a test compound in the incubation buffer of 50 mM Tris-HCl, 5 mM MgCl2, 1 mM EDTA, 0.3% BSA, pH 7.4. The non-specific binding was determined by using 1 μM of CP55,940. The mixture was incubated for 1.5 hours at 30° C. in Multiscreen microplates (Millipore, Billerica, Mass.). At the completion of the incubation, the reaction was terminated by Manifold filtration and washed with ice-cold wash buffer (50 mM Tris, pH 7.4, 0.25% BSA) four times. The radioactivity bound to the filters was measured by Topcount (Perkin Elmer Inc.).
On the technique in general: In a radioligand displacement assay an active substance lowers the binding of a labelled ligand.
The compound `CCCCOC(=O)Cn1nnc(-c2ccccc2)c1-c1ccccc1` [Compound 1] showed an inhibition at 10 µM of 40.8%.
Next, `CCN(CC)C(=O)Cn1nnc(-c2ccccc2)c1-c1ccccc1` [Compound 2]: 22.6%.
`O=C(Cn1nnc(-c2ccccc2)c1-c1ccccc1)N1CCCCC1` [Compound 3]: the inhibition at 10 µM amounted to 26.6%.
`CCCCOC(=O)Cn1cc(-c2ccccc2)nn1` [Compound 4] had an inhibition at 10 µM of 9.6%.
For `CC(C)N(C(=O)Cn1nnc(-c2ccccc2)c1-c1ccccc1)C(C)C` [Compound 5], the inhibition at 10 µM was 18%.
With `CCCCOC(=O)Cn1nnc(-c2ccc(Cl)c(Cl)c2)c1-c1ccc(Cl)c(Cl)c1` [Compound 6], the inhibition at 10 µM was 50.5%.
`C=CCNC(=O)Cn1nnc(-c2ccccc2)c1-c1ccccc1` [Compound 7] came in with an inhibition at 10 µM of 15.4%.
The compound `O=C(Cn1nnc(-c2ccccc2)c1-c1ccccc1)NN1CCCCC1` [Compound 8] came in with an inhibition at 10 µM of 12.3%.
As to `CNC(=O)Cn1nnc(-c2ccccc2)c1-c1ccccc1` [Compound 9], the inhibition at 10 µM amounted to 21.1%.
For `O=C(Cn1nnc(-c2ccc(Cl)c(Cl)c2)c1-c1ccc(Cl)c(Cl)c1)N1CCCCC1` [Compound 10], the inhibition at 10 µM is 20.3%.
Consider `O=C(Cn1nnc(-c2cccc(Cl)c2)c1-c1cccc(Cl)c1)N1CCCCC1` [Compound 11], for which at 10 µM the inhibition was 20.4%.
The compound `O=C(Cn1nnc(-c2ccc(F)c(Cl)c2)c1-c1ccc(F)c(Cl)c1)N1CCCCC1` [Compound 12] yielded an inhibition at 10 µM of 30.7%.
In the case of `CCCCOC(=O)Cn1nncc1-c1ccccc1` [Compound 13] it was 22%; in that of `CCCCOC(=O)Cn1nnc(-c2ccc(Cl)cc2)c1-c1ccc(Cl)cc1` [Compound 14], 64.1%.
As for `O=C(Cn1nnc(-c2ccccc2)c1-c1ccccc1)OCc1ccccc1` [Compound 15], at 10 µM the inhibition was 35.4%.
Next, `O=C(Cn1nnc(-c2ccc(Cl)cc2)c1-c1ccc(Cl)cc1)N1CCCCC1` [Compound 16]: 33%; `O=C(Cn1nnc(-c2cc(Cl)cc(Cl)c2)c1-c1cc(Cl)cc(Cl)c1)N1CCCCC1` [Compound 17]: 25.9%.
Compound `O=C(Cn1nnc(-c2cccc(F)c2)c1-c1cccc(F)c1)N1CCCCC1` [Compound 18] gave an inhibition at 10 µM of 19.7%.
In the case of `CCCCOC(=O)Cn1nnc(-c2cccc(Cl)c2)c1-c1cccc(Cl)c1` [Compound 19] it was 36.7%.
Next, `CCCCCOC(=O)Cn1nnc(-c2ccc(Cl)cc2)c1-c1ccc(Cl)cc1` [Compound 20]: 51.2%; `CCCCOC(=O)Cn1nnc(-c2ccc(F)c(Cl)c2)c1-c1ccc(F)c(Cl)c1` [Compound 21]: 15.7%.
Compound `CCCCOC(=O)Cn1nnc(-c2cccc(F)c2)c1-c1cccc(F)c1` [Compound 22] had an inhibition at 10 µM of 27.1%.
Next, `CCCCOC(=O)Cn1nnc(-c2cc(Cl)cc(Cl)c2)c1-c1cc(Cl)cc(Cl)c1` [Compound 23]: 29.9%.
Next, `CCCCOC(=O)CCn1nnc(-c2ccccc2)c1-c1ccccc1` [Compound 24]: 31.6%; `CCCCCCCOC(=O)Cn1nnc(-c2ccc(Cl)cc2)c1-c1ccc(Cl)cc1` [Compound 25]: 53.6%.
As for `CCCCCCCCOC(=O)Cn1nnc(-c2ccc(Cl)cc2)c1-c1ccc(Cl)cc1` [Compound 26], the inhibition at 10 µM came to 51.2%.
In the case of `O=C(NCCc1ccccc1)n1nc(-c2ccc(Cl)cc2Cl)c(-c2ccc(Cl)cc2Cl)n1` [Compound 27] it was 46%; in that of `CCCCCCOC(=O)Cn1nnc(-c2ccc(Cl)cc2)c1-c1ccc(Cl)cc1` [Compound 28], 36.5%; in that of `CCCCOC(=O)Cn1nnc(-c2ccccc2)c1-c1ccc(C(=O)OC)cc1` [Compound 29], 31.9%.
Consider `CCCCOC(=O)Cn1nnc(-c2ccc(OC)cc2)c1-c1ccccc1` [Compound 30], for which 10 µM produced 40% inhibition.
For `CCCCOC(=O)Cn1nnc(-c2ccccc2)c1-c1ccc(C#N)cc1` [Compound 31], the inhibition at 10 µM was found to be 18.9%.
In the case of `CCCOC(=O)Cn1nnc(-c2ccc(Cl)cc2)c1-c1ccc(Cl)cc1` [Compound 32] it was 28.3%; in that of `CCC(CC)OC(=O)Cn1nnc(-c2ccc(Cl)cc2)c1-c1ccc(Cl)cc1` [Compound 33], 24.6%; in that of `CCCCOC(=O)Cn1nnc(-c2ccc(OC)cc2)c1-c1ccc(OC)cc1` [Compound 34], 45.9%.
For `CCCCOC(=O)Cn1nnc(-c2ccc(C(F)(F)F)cc2)c1-c1ccc(C(F)(F)F)cc1` [Compound 35], the inhibition at 10 µM was determined as 46%.
With `CCCCOC(=O)Cn1nnc(-c2ccccc2)c1-c1ccc(Cl)cc1` [Compound 36], at 10 µM the inhibition was 35.2%.
Regarding `CCCCOC(=O)Cn1nnc(-c2ccccc2)c1-c1ccc(C)cc1` [Compound 37], 10 µM produced 26.5% inhibition.
With `CCCCN(CCCC)C(=O)Cn1nnc(-c2ccccc2)c1-c1ccccc1` [Compound 38], the inhibition at 10 µM amounted to 23.8%.
`CCCCCCCCN(CCCCCCCC)C(=O)Cn1nnc(-c2ccccc2)c1-c1ccccc1` [Compound 39] came in with an inhibition at 10 µM of 4.1%.
For the compound `CCCCOC(=O)Cn1nnc(-c2ccccc2)c1-c1ccc(C(F)(F)F)cc1` [Compound 40], the inhibition at 10 µM worked out at 16.3%.
The compound `CCCCOC(=O)Cn1nnc(-c2ccccc2)c1-c1ccc([N+](=O)[O-])cc1` [Compound 41] registered an inhibition at 10 µM of 14.7%.
Compound `CCCCOC(=O)Cn1nnc(-c2ccccc2)c1-c1ccsc1` [Compound 42] displayed an inhibition at 10 µM of 35.6%.
Next, `O=C(CCn1nnc(-c2ccccc2)c1-c1ccccc1)N1CCCCC1` [Compound 43]: 34.4%; `CC(C)(C)OC(=O)NNC(=O)Cn1nnc(-c2ccccc2)c1-c1ccccc1` [Compound 44]: 14.1%; `CCCCCCNC(=O)NNC(=O)Cn1nnc(-c2ccc(Cl)cc2)c1-c1ccc(Cl)cc1` [Compound 45]: 9.8%.
Next, `CCCCOC(=O)Cn1nnc(-c2ccc(Cl)cc2)c1-c1ccc(Cl)cc1Cl` [Compound 46]: 50.8%; `O=C(Cn1nnc(-c2ccc(Cl)cc2Cl)c1-c1ccc(Cl)cc1)N1CCCCC1` [Compound 47]: 61.8%.
`CCCCOC(=O)Cn1nnc(-c2ccccc2F)c1-c1ccccc1` [Compound 48] displayed an inhibition at 10 µM of 36.1%.
In the case of `CCCCCCCCNC(=O)NNC(=O)Cn1nnc(-c2ccc(Cl)cc2)c1-c1ccc(Cl)cc1` [Compound 49] it was 30.3%; in that of `CCCCCCCNC(=O)NNC(=O)Cn1nnc(-c2ccc(Cl)cc2)c1-c1ccc(Cl)cc1` [Compound 50], 27.5%; in that of `CCCCCNC(=O)NNC(=O)Cn1nnc(-c2ccc(Cl)cc2)c1-c1ccc(Cl)cc1` [Compound 51], 18.6%.
Next, `O=C(Cn1nnc(-c2ccccc2)c1-c1ccccc1F)N1CCCCC1` [Compound 52]: 11%; `CCCCOC(=O)Cn1nnc(-c2ccc(Br)cc2)c1-c1ccc(Br)cc1` [Compound 53]: 68.7%; `CCCCOC(=O)Cn1nnc(-c2ccc(Cl)cc2Cl)c1-c1ccc(Cl)cc1Cl` [Compound 54]: 71.7%.
As to `CCCCCCOC(=O)Cn1nnc(-c2ccc(Cl)cc2)c1-c1ccc(Cl)cc1Cl` [Compound 55], testing at 10 µM gave an inhibition of 45.7%.

The term inhibition denotes how much of the control response was suppressed. High values mean a strong effect, low ones a weak effect.
